# Patent US20230083012A1, “DIHYDROPYRIMIDINE DERIVATIVES AND USES THEREOF IN THE TREATMENT OF HBV INFECTION OR OF HBV-INDUCED DISEASES” (priority 2019, published 2023)
# What was measured:
# [1] = system: HBV; experiment: Anti-HBV activity in HepG2.2.15 cells (HBV DNA in culture medium by qPCR); format: cell-based; conditions: Hepatitis B virus, HepG2.2.15, 144 h, HepG2.2.15 cells, 6 days treatment, HBV DNA in culture medium quantified by real-time PCR; read-out: EC50
# Procedure, shortened: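 Secreted HBV DNA was measured by real-time PCR after 6-day compound exposure of HepG2.2.15 cells (2% FBS, 37 °C, re-dosed after 3 days), giving EC50 from 8-point 1:3 series starting at 10 or 1 uM. Cytotoxicity (CC50) run separately at lower cell density, top 100 uM.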
# [2] = Cytotoxicity determination in HepG2.2.15 cells (CCK-8 cell viability); format: cell-based; conditions: human, 6 days treatment, CCK-8 assay, highest concentration 100 uM
# Procedure, shortened: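 Viability measured by CCK-8 absorbance (450 nm, 630 nm reference, 2.5 h at 37° C) after six days of treatment, medium and compound renewed on day 3. Top concentration 100 uM, eight threefold dilutions in triplicate; cells plated at 5,000/well in 2% FBS medium; CC50 derived.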
SMILES,EC50 [1] [nM],CC50 at 6 days [2] [nM]
"CCOC(=O)C1=C(CN2CC(F)(F)[C@@H]3CN(C(=O)C(C)(C)C(=O)O)C[C@@H]32)NC(c2nccs2)=N[C@H]1c1cccc(F)c1Cl (single isomer, unassigned) [Compound 207, 3-((cis)-1-((6-(2-chloro-3-fluorophenyl)-5-(ethoxycarbonyl)-2-(thiazol-2-yl)-3,6-dihydropyrimidin-4-yl)methyl)-3,3-difluorohexahydropyrrolo[3,4-b]pyrrol-5(1H)-yl)-2,2-dimethyl-3-oxopropanoic acid]",59,> 50000
"CCOC(=O)C1=C(CN2CC(F)(F)C3CN(CC(C)C(=O)O)CC32)NC(c2nccs2)=N[C@H]1c1cccc(F)c1C (stereo in doubt) [Compound 15, 3-((cis)-1-(((S)-5-(ethoxycarbonyl)-6-(3-fluoro-2-methylphenyl)-2-(thiazol-2-yl)-3,6-dihydropyrimidin-4-yl)methyl)-3,3-difluorohexahydropyrrolo[3,4-b]pyrrol-5(1H)-yl)-2-methylpropanoic acid]",60.3,> 100000
"CCOC(=O)C1=C(CN2CC[C@H]3C(=O)N(CC(C)(C)C(=O)O)C[C@H]32)NC(c2nccs2)=N[C@H]1c1cccc(F)c1C (single isomer, unassigned) [Compound 25A]",32.4,74500
"CCOC(=O)C1=C(CN2C[C@H](F)[C@@]3(F)C(=O)N(CC(C)(C)C(=O)O)C[C@@H]23)NC(c2nccs2)=N[C@H]1c1cccc(F)c1C (single isomer, unassigned) [Compound 204C]",7.1,36900
"CCOC(=O)C1=C(CN2CC(F)(F)[C@H]3[C@@H]2CCN3C[C@@H](CC)C(=O)O)NC(c2nccs2)=N[C@@H]1c1ccc(F)nc1C (single isomer, unassigned) [Compound 122A, 2-(((cis)-4-((5-(ethoxycarbonyl)-6-(6-fluoro-2-methylpyridin-3-yl)-2-(thiazol-2-yl)-3,6-dihydropyrimidin-4-yl)methyl)-6,6-difluorohexahydropyrrolo[3,2-b]pyrrol-1(2H)-yl)methyl)butanoic acid]",6,> 100000
"CCOC(=O)C1=C(CN2CC(F)(F)[C@H]3[C@@H]2CCN3S(C)(=O)=O)NC(c2nccs2)=N[C@H]1c1cccc(F)c1C (single isomer, unassigned) [Compound 62]",12.7,17300
"CCOC(=O)C1=C(CN2CC(F)C3C2CCN3CC(C)(C)C(=O)O)NC(c2nccs2)=N[C@H]1c1cccc(F)c1C (stereo partly drawn) [Compound 11, 3-(4-(((S)-5-(ethoxycarbonyl)-6-(3-fluoro-2-methylphenyl)-2-(thiazol-2-yl)-3,6-dihydropyrimidin-4-yl)methyl)-6-fluorohexahydropyrrolo[3,2-b]pyrrol-1(2H)-yl)-2,2-dimethylpropanoic acid]",70.3,37300
"COC(=O)C1=C(CN2CC(F)(F)[C@H]3[C@@H]2CCN3CCC(C)(C)C(=O)O)NC(c2nccs2)=N[C@H]1c1cccc(F)c1Cl (single isomer, unassigned) [Compound 128, 4-((cis)-4-((6-(2-Chloro-3-fluorophenyl)-5-(methoxycarbonyl)-2-(thiazol-2-yl)-3,6-dihydropyrimidin-4-yl)methyl)-6,6-difluorohexahydropyrrolo[3,2-b]pyrrol-1(2H)-yl)-2,2-dimethylbutanoic acid]",0.8,40100
"CCOC(=O)C1=C(CN2CC(F)(F)[C@H]3CN(C(C)C(=O)O)C[C@H]32)NC(c2nccs2)=N[C@H]1c1cccc(F)c1C (single isomer, unassigned) [Compound 14B]",102,67900
"CCOC(=O)C1=C(CN2CC(F)(F)[C@@H]3NCC[C@@H]32)NC(c2nccs2)=N[C@H]1c1cccc(F)c1C (single isomer, unassigned) [Compound 103]",54.3,19800
"COC(=O)C1=C(CN2CC(F)(F)[C@@H]3[C@H]2CON3CCC(C)(C)C(=O)O)NC(c2nccs2)=N[C@H]1c1cccc(F)c1F (single isomer, unassigned) [Compound 167, 4-((cis)-4-((6-(2,3-difluorophenyl)-5-(methoxycarbonyl)-2-(thiazol-2-yl)-3,6-dihydropyrimidin-4-yl)methyl)-6,6-difluorohexahydro-1H-pyrrolo[3,2-c]isoxazol-1-yl)-2,2-dimethylbutanoic acid]",16.3,> 100000
"CCOC(=O)C1=C(CN2CC(F)(F)[C@@H]3[C@H]2CN(C)N3CCC(C)(C)C(=O)O)NC(c2nccs2)=N[C@@H]1c1ccc(F)c(F)c1C (single isomer, unassigned) [Compound 93, 4-(4-((6-(3,4-difluoro-2-methylphenyl)-5-(ethoxycarbonyl)-2-(thiazol-2-yl)-3,6-dihydropyrimidin-4-yl)methyl)-6,6-difluoro-2-methylhexahydropyrrolo[3,2-c]pyrazol-1(2H)-yl)-2, ethylbutanoic acid]",12,5400
CCOC(=O)C1=C(CN2CCC3C(=O)N(CC(C)(C)C(=O)O)CC32)NC(c2nccs2)=N[C@H]1c1cccc(F)c1C (stereo partly shown) [Compound 25],95.2,95500
"CCOC(=O)C1=C(CN2CC(F)(F)[C@H]3[C@@H]2CCN3C[C@@H]2CC[C@@H]2C(=O)O)NC(c2nccs2)=N[C@H]1c1cccc(F)c1C (single isomer, unassigned) [Compound 130A]",7.6,22400
"CCOC(=O)C1=C(CN2CC(F)(F)C3C(=O)N(C(=O)CC(C)(C)C(=O)O)C[C@@H]32)NC(c2nccs2)=N[C@H]1c1cccc(F)c1C (single isomer, unassigned) [Compound 190]",4.3,28700
"CCOC(=O)C1=C(CN2CC(F)(F)[C@@H]3[C@H]2CN(C)N3CCC(C)(C)C(=O)O)NC(c2nccs2)=N[C@H]1c1cccc(F)c1Cl (single isomer, unassigned) [Compound 102, 4-((cis)-4-((6-(2-chloro-3-fluorophenyl)-5-(ethoxycarbonyl)-2-(thiazol-2-yl)-3,6-dihydropyrimidin-4-yl)methyl)-6,6-difluoro-2-methylhexahydropyrrolo[3,2-c]pyrazol-1(2H)-yl)-2,2-dimethylbutanoic acid]",13.5,53800
"CCOC(=O)C1=C(CN2CC(F)(F)[C@H]3CN(C[C@H](C)C(=O)O)C[C@H]32)NC(c2nccs2)=N[C@H]1c1cccc(F)c1C (single isomer, unassigned) [Compound 15F]",16.1,39000
"CCOC(=O)C1=C(CN2CC(F)(F)[C@@H]3CN(C(=O)C4(C(=O)O)CC4)C[C@@H]32)NC(c2nccs2)=N[C@H]1c1cccc(F)c1C (single isomer, unassigned) [Compound 10]",80.5,69600
"CCOC(=O)C1=C(CN2CC(F)(F)[C@H]3CN([C@@H](C)C(=O)O)C[C@H]32)NC(c2nccs2)=N[C@H]1c1cccc(F)c1C (single isomer, unassigned) [Compound 14F]",125,> 100000
"CCOC(=O)C1=C(CN2CC(F)(F)[C@@H]3CN(CC(C)(C)C(=O)O)C[C@@H]32)NC(c2nccs2)=N[C@H]1c1cccc(F)c1C (single isomer, unassigned) [Compound 12B]",8.2,86100
"CCOC(=O)C1=C(CN2CC(F)(F)[C@@H]3CN(S(=O)(=O)CC(C)(C)C(=O)O)C[C@@H]32)NC(c2nccs2)=N[C@H]1c1cccc(F)c1C (single isomer, unassigned) [Compound 46]",39.4,20900
"CCOC(=O)C1=C(CN2CC(F)(F)[C@@H]3[C@H]2CN(CC(F)(F)F)N3CCC(C)(C)C(=O)O)NC(c2nccs2)=N[C@H]1c1cccc(F)c1C (single isomer, unassigned) [Compound 92]",61,5000
"CCOC(=O)C1=C(CN2CC(F)(F)[C@@H]3C(=O)N([C@@H](C)C(=O)O)C[C@@H]32)NC(c2nccs2)=N[C@H]1c1cccc(F)c1C (single isomer, unassigned) [Compound 180]",92.6,> 100000
"COC(=O)C1=C(CN2CC(F)(F)[C@@H]3[C@H]2CN(C)N3CCC(C)(C)C(=O)O)NC(c2nccs2)=N[C@H]1c1ccc(F)c(F)c1C (single isomer, unassigned) [Compound 101, 4-((cis)-4-((6-(3,4-Difluoro-2-methylphenyl)-5-(methoxycarbonyl)-2-(thiazol-2-yl)-3,6-dihydropyrimidin-4-yl)methyl)-6,6-difluoro-2-methylhexahydropyrrolo[3,2-c]pyrazol-1(2H)-yl)-2,2-dimethylbutanoic acid]",25,> 3100
"COC(=O)C1=C(CN2CC[C@]3(F)C(=O)N(CC(C)(C)C(=O)O)C[C@H]23)NC(c2nccs2)=N[C@H]1c1ccc(F)c(F)c1Cl (single isomer, unassigned) [Compound 209A, 3-((cis)-1-((6-(2-chloro-3,4-difluorophenyl)-5-(methoxycarbonyl)-2-(thiazol-2-yl)-3,6-dihydropyrimidin-4-yl)methyl)-3a-fluoro-4-oxohexahydropyrrolo[3,4-b]pyrrol-5(1H)-yl)-2,2-dimethylpropanoic acid]",19.1,23300
"CCOC(=O)C1=C(CN2CCC3(F)C(=O)N(CC(C)(C)C(=O)O)CC23)NC(c2nccs2)=N[C@H]1c1cccc(F)c1C (stereo in doubt) [Compound 3, 3-((cis)-1-(((S)-5-(ethoxycarbonyl)-6-(3-fluoro-2-methylphenyl)-2-(thiazol-2-yl)-3,6-dihydropyrimidin-4-yl)methyl)-3a-fluoro-4-oxohexahydropyrrolo[3,4-b]pyrrol-5(1H)-yl)-2,2-dimethylpropanoic acid]",20.2,63100
